Reference: patent US12036315B2, “Pharmaceutical composition for oral administration comprising enzalutamide” (Astellas Pharma Inc., priority 2017, dated 2024)
≈ marks a conversion by molar mass, not a printed value.

Experiment: Solubility of enzalutamide in water
Format: physicochemical
Conditions: 20° C.±5° C.
Source text: The term “to improve solubility” as used herein means that the solubility, the dissolved concentration, or the dissolved rate of enzalutamide in a solvent is increased.
It is possible to obtain good solubility and/or good dissolution properties by applying the technology of the present invention. Further, it is possible to obtain good oral absorbability by applying the technology of the present invention.

solubility: 2 µg/mL (≈ 4.31 µM)
SMILES: CNC(=O)c1ccc(N2C(=S)N(c3ccc(C#N)c(C(F)(F)F)c3)C(=O)C2(C)C)cc1F [Enzalutamide, 4-{3-[4-cyano-3-(trifluoromethyl)phenyl]-5,5-dimethyl-4-oxo-2-sulfanylideneimidazolidin-1-yl}-2-fluoro-N-methylbenzamide]
